Assay results published in paper PMC5442763, “Selective Inhibition of ADAM17 Efficiently Mediates Glycoprotein Ibα Retention During Ex Vivo Generation of Human Induced Pluripotent Stem Cell‐Derived Platelets” (Stem Cells Translational Medicine, 2016).
Peptide text beside a SMILES is read from it. * marks the point of attachment. Cbz = O=C(OCc1ccccc1)*; CH2F = FC*

What was measured:
[1] = target: T1, human MMP14 (Homo sapiens, UniProt P50281); test: MMP and ADAM activity assay (fluorescence-based): MMP14; type: biochemical; settings: cell-free fluorescence assay
T1 construct: purchased EMD Millipore
Description: (§1) KP‐457 and GM‐6001 were tested for their ability to inhibit MMP‐ and ADAM‐catalyzed cleavage of substrates in a fluorescence‐based assay. Human ADAM17, ADAM10, and MMP17 were from R&D Systems (Minneapolis, MN, http://www.rndsystems.com), and human MMP1, MMP2, MMP3, MMP8, MMP9, MMP13, and MMP14 were from EMD Millipore. MMP1, MMP2, MMP8, MMP9, MMP13, and MMP17 were activated using p‐aminophenylmercuric acetate (Sigma‐Aldrich) before testing. Fluorogenic substrates for measuring activity of ADAM10 and ADAM17 [Nma‐[…](Dnp)r‐NH2, based on the cleavage site of TNF‐α]; MMP1, MMP9, MMP13, and MMP14 [Dnp‐P‐Cha‐GC(Me)HAK(N‐Me‐Abz)‐NH2]; MMP3 [MOCAc‐RPKPVE‐Nva‐WRK(Dnp)‐NH2]; and MMP2, MMP8, and MMP17 [MOCAc‐PLGL‐A2pr(Dnp)‐AR‐NH2] were all provided by Peptide Institute (Osaka, Japan, https://www.peptide.co.jp/en) and used as substrates. In addition, inhibitory activities were measured using LC/MS/MS with a GPIbα‐based substrate peptide ([…]), a C terminal‐based standard peptide ([…]), and an internal standard peptide ([…]). These peptides were synthetized by Scrum (Tokyo, Japan, http://www.scrum‐net.co.jp/english/top_en.htm).

[2] = target: T2, human MMP3 (Homo sapiens, UniProt P08254); test: MMP and ADAM activity assay (fluorescence-based): MMP3; type: biochemical; settings: cell-free fluorescence assay
T2 construct: purchased EMD Millipore
Description: as §1

[3] = system: human iPSC-derived MKs and platelets; test: Generation of MKs and platelets from human iPSC-derived HPCs at 37°C, flow cytometry; type: cell-based; settings: for number of CD41a+ total iPSC platelets / retention of GPIbα expression on CD41a+ iPSC-derived platelets / number of CD41a+ iPSC-derived MKs: KP-457 15 μmol/l, GM-6001 50 μmol/l, p38 MAP kinase inhibitor 10 μmol/l; for number of CD41a+ iPSC-derived MKs: MK differentiation and platelet production phases; for GPIbα retention by iPSC-derived platelets, inhibitor only during platelet production phase: days 21–23 or 24, KP-457 15, BIRB796 10, U0126 10, BMS345541 10, Z-VAD 10, Ro31-8220 3 μmol/l
Description: Directed differentiation to MKs and platelets from iPSCs and ESCs was performed as described previously. Briefly, 3 × 10^4 HPCs derived from iPS‐sacs on C3H10T1/2 feeder cells in the presence of 20 ng/ml vascular endothelial growth factor were transferred on day 14 of culture onto C3H10T1/2 feeder cells in differentiation medium supplemented with 50 ng/ml stem cell factor, 100 ng/ml thrombopoietin, 25 U/ml heparin sodium, and test compounds at 24°C or 37°C. The medium was refreshed every 3 days, and nonadherent cells were collected and analyzed on days 22–24.
(§2) Flow cytometric analysis was performed as previously described. Briefly, iPSC‐ and ESC‐derived MKs on days 22–24 and platelets in their supernatants were stained with combinations of antibodies for 30 minutes on ice (for MKs) or at room temperature (for platelets). Samples of MKs/platelets were then washed, diluted with staining medium (phosphate‐buffered saline containing 3% fetal bovine serum), and analyzed using flow cytometry (FACSAria; BD). Trucount tubes (BD) were used to quantify the MKs and platelets.

[4] = target: T3, human MMP17 (Homo sapiens, UniProt Q9ULZ9); test: MMP and ADAM activity assay (fluorescence-based): MMP17; type: biochemical; settings: cell-free fluorescence assay
T3 construct: purchased R&D Systems
Description: as §1

[5] = target: T4, human ADAM10 (Homo sapiens, UniProt O14672); test: MMP and ADAM activity assay (fluorescence-based): ADAM10; type: biochemical; settings: cell-free fluorescence assay
T4 construct: purchased R&D Systems
Description: as §1

[6] = target: T5, Human ADAM17 (Homo sapiens, UniProt P78536); test: Cleavage of GPIbα-based substrate peptide by ADAM17 (LC/MS/MS); type: biochemical; settings: read-out: IC50, inhibition of C-terminal cleavage of the GPIbα sequence by ADAM17
T5 construct: purchased R&D Systems
Source text: as §1, with “Human” for “KP‐457 and GM‐6001 were tested for their ability to inhibit MMP‐ and ADAM‐catalyzed cleavage of substrates in a fluorescence‐based assay. Human”
(1 picture or pasted object on this page, not shown here)

[7] = target: T6, human MMP13 (Homo sapiens, UniProt P45452); test: MMP and ADAM activity assay (fluorescence-based): MMP13; type: biochemical; settings: cell-free fluorescence assay
T6 construct: purchased EMD Millipore
Source text: as §1, with “Human” for “KP‐457 and GM‐6001 were tested for their ability to inhibit MMP‐ and ADAM‐catalyzed cleavage of substrates in a fluorescence‐based assay. Human”

[8] = system: mouse ESC-derived platelets; set-up: method as in PMID 18663123; settings: 100 µmol/l; cited from earlier work
[9] = target: T5, Human ADAM17; test: MMP and ADAM activity assay (fluorescence-based, cell-free): ADAM17; type: biochemical; settings: cell-free fluorescence assay, TNF-α cleavage site substrate
Source text: as §1, with “Human” for “KP‐457 and GM‐6001 were tested for their ability to inhibit MMP‐ and ADAM‐catalyzed cleavage of substrates in a fluorescence‐based assay. Human”

[10] = system: mouse platelets; set-up: method as in PMID 23801636; settings: cited from earlier work
[11] = system: platelet aggregation; test: Platelet aggregation induced by thrombin or collagen; type: cell-based
[12] = system: human washed platelets; test: CCCP-induced GPIbα shedding from washed platelets; type: cell-based; settings: relative to maximum inhibition elicited by KP-457 or GM-6001
Description: as §2
Washed platelets were prepared as described elsewhere.

[13] = system: ADAM17; set-up: method as in PMID 25049354; settings: cited from earlier work

T5 sequence (P78536 215-824): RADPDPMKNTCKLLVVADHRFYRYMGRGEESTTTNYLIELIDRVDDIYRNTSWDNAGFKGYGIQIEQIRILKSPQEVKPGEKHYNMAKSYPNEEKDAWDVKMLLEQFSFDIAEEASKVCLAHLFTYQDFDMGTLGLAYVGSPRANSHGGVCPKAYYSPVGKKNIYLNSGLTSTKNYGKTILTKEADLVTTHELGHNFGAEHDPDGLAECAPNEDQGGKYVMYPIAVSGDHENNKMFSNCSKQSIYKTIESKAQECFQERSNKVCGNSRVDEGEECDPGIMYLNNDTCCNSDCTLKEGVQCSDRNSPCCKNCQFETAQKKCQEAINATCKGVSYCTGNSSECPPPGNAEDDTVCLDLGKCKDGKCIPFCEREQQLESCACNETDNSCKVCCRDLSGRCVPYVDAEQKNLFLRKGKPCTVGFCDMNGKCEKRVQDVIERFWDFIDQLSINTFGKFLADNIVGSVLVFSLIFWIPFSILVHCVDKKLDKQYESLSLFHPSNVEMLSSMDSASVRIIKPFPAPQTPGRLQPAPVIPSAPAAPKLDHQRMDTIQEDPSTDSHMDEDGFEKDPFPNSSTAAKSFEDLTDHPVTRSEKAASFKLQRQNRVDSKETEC
T4 sequence (O14672 214-748): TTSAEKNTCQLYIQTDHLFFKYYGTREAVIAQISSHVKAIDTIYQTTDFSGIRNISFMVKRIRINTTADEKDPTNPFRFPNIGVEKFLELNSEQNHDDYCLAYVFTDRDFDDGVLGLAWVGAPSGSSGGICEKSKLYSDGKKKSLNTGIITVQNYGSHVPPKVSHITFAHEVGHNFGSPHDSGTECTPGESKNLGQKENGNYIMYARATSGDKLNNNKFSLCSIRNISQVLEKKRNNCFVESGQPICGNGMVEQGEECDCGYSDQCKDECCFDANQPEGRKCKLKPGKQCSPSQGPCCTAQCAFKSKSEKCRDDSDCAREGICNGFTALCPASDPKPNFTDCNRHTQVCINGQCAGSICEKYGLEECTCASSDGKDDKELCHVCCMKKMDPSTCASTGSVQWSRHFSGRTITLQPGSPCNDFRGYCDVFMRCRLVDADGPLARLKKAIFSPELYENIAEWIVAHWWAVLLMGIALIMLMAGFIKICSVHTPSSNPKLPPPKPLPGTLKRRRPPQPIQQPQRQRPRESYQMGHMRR
T3 sequence (Q9ULZ9 126-565 limits assumed): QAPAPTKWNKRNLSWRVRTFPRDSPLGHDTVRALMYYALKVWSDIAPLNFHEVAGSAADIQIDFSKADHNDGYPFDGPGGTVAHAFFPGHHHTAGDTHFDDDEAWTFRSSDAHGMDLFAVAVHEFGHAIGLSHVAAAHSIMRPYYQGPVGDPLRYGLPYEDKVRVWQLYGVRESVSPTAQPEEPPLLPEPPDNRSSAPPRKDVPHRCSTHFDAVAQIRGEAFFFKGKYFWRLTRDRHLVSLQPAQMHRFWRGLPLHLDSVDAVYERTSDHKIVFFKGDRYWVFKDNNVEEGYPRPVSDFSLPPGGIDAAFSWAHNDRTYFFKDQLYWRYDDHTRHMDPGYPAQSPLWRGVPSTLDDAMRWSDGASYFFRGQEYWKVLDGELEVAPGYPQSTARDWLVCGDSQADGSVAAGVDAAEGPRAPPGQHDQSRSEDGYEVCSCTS
T2 sequence (P08254 100-477): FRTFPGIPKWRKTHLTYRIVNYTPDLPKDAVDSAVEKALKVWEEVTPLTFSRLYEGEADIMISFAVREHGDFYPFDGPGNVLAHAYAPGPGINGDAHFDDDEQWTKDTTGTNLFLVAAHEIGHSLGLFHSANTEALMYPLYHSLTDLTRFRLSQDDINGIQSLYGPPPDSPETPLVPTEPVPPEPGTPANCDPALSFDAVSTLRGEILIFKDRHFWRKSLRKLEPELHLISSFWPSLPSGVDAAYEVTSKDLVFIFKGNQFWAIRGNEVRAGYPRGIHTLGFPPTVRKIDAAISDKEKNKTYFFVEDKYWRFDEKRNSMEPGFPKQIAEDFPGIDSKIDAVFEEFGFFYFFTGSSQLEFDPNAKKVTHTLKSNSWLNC

## CNC(=O)[C@H](Cc1c[nH]c2ccccc12)NC(=O)[C@@H](CC(=O)NO)CC(C)C [GM-6001]
[1]
  IC50: 2.96 nM
[2]
  IC50: 79.8 nM
[3]
  number of CD41a+ total iPSC platelets: no significant effect
  retention of GPIbα expression on CD41a+ iPSC-derived platelets: able to retain
  number of CD41a+ iPSC-derived MKs: no significant effect
[4]
  IC50: 5.16 nM
[5]
  IC50: 642 nM
[6]
  IC50: 53.8 nM
[7]
  IC50: 0.435 nM
[8]
  GPVI shedding during platelet generation from mouse ESCs: partially inhibited
[9]
  IC50: 163 nM

## Cc1ccc2nc(NCCN)c3ncc(C)n3c2c1 [BMS345541]
[3]
  GPIbα retention by iPSC-derived platelets, inhibitor only during platelet production phase: failed to prevent

## CC(NC(=O)C(NC(=O)OCc1ccccc1)C(C)C)C(=O)NC(CC(=O)O)C(=O)CF (stereo not drawn) [Z‐VAD] (Cbz-Val-Ala-Asp-CH2F; configuration not given here)
[3]
  GPIbα retention by iPSC-derived platelets, inhibitor only during platelet production phase: failed to prevent

## C[S+]([O-])c1ccc(-c2nc(-c3ccncc3)c(-c3ccc(F)cc3)[nH]2)cc1 (centres unmarked) [SB203580]
[10]
  suppression of thrombin-induced GPIbα shedding from mouse platelets compared with GM-6001: less effectively
[11]
  effect on collagen-induced platelet aggregation: diminished
[3]
  number of CD41a+ total iPSC platelets: increased
  retention of GPIbα expression on CD41a+ iPSC-derived platelets: failed to preserve
  number of CD41a+ iPSC-derived MKs: increased
[12]
  plateau of the inhibitory effect on CCCP-induced GPIbα shedding: around half the maximum inhibition

## Cn1cc(C2=C(c3cn(CCCSC(=N)N)c4ccccc34)C(=O)NC2=O)c2ccccc21 [Ro31‐8220]
[3]
  GPIbα retention by iPSC-derived platelets, inhibitor only during platelet production phase: failed to prevent

## Cc1ccc(-n2nc(C(C)(C)C)cc2NC(=O)Nc2ccc(OCCN3CCOCC3)c3ccccc23)cc1 [BIRB796]
[11]
  effect on collagen-induced platelet aggregation: diminished
[3]; BIRB796 10 μmol/l, representative FACS plot, vehicle 48.3%
  GPIbα+ population in human iPSC-derived CD41a+ platelets: 48.0%
[3]
  number of CD41a+ total iPSC platelets: increased
  retention of GPIbα expression on CD41a+ iPSC-derived platelets: failed to preserve
  number of CD41a+ iPSC-derived MKs: increased
  GPIbα retention by iPSC-derived platelets, inhibitor only during platelet production phase: failed to prevent
[12]
  plateau of the inhibitory effect on CCCP-induced GPIbα shedding: around half the maximum inhibition

## COc1ccc(S(=O)(=O)N2Cc3ccccc3C[C@@H]2C(=O)NO)cc1 [M8I]
[13]
  ADAM17 inhibition: potently inhibits ADAM17

## N#CC(=C(/N)Sc1ccccc1N)/C(C#N)=C(/N)Sc1ccccc1N [U0126]
[3]
  GPIbα retention by iPSC-derived platelets, inhibitor only during platelet production phase: failed to prevent
